The values below are quoted from earlier work in patent US20220008494A1, “COMPOSITION FOR USE IN THE PREVENTION AND/OR SYMPTOMATIC TREATMENT OF IRRITABLE BOWEL SYNDROME” (priority 2018, published 2022).

The subject of data set [1] is carrageenan-induced edema. The settings on record: 10 mg/kg p.o.; from 1 to 24 h (p<0.01) compared to the control.
The test system of data set [2] is tail withdrawal reaction time. The note with it: rat, in vivo.
Data set [3] deals with IBS patients. The note with it: 300 mg per day as adjunct to standard therapies.
Data set [4] relates to IBS-D patients.
Setting [5] is: 1 g/day butyric acid and inulin for 1 month, IBS-D compared to IBS-C patients.

As for `O=C(O)Cc1ccccc1Nc1c(Cl)cccc1Cl` [Diclofenac, Diclofenac sodium], in data set [1], the “edema (paw volume, plethysmometrically)” value is on record as “significant decrease”.
`CC(C)=CCN1CCC2(C)c3cc(O)ccc3CC1C2C` (stereo not shown) [Pentazocine]: the “reaction time (tail withdrawal)” value in data set [2] is “significant increase”.
Turning to `CCCC(=O)O` [butyric acid], the “frequency of abdominal pain associated with defecation” value in data set [3] (fourth week of treatment) is recorded as “significant decrease”. Further, in data set [3] (twelfth week), the defecation-associated pain result was “also decrease”, the post-defecation stimulus entry is given as “also decrease”, the post-prandial abdominal pain result is given as “also decrease” and the spontaneous abdominal pain result is listed as “also decrease”. In addition, the “condition of IBS-D patients” value in data set [4] (1 g/day butyric acid (4 x 250 mg capsules) and inulin for 1 month) is reported as “normalization”. For the same compound, in data set [4] (setting [5]), the “frequency of diarrhea episodes” value was “significant reduction” and the stool consistency result is recorded as “significant increase”.
